We go through six molecules from paper PMC10778626, “Efficacy of Novel Quaternary Ammonium and Phosphonium Salts Differing in Cation Type and Alkyl Chain Length against Antibiotic-Resistant Staphylococcus aureus” (International Journal of Molecular Sciences, 2023).

The structures appear in SMILES notation.

One test concerns S. aureus CECT 976. Put plainly: Quantitative suspension test, dose-response against planktonic bacteria. The test is classed as cell-based, Staphylococcus aureus. To be noted: 30 min exposure; for concentration inducing reductions in S. aureus log CFU/mL > 5 / MBC: S. aureus CECT 976; for MBC: Staphylococcus aureus, CECT976, 0.5 h, 37 °C, distilled water. On the procedure:
A quantitative suspension test to explore the dose–response relationships of QHSs by evaluating bactericidal activity was performed. For this method, overnight grown cultures were centrifuged (VWR Mega Star 600R) at 3772× g for 10 min and washed twice with phosphate-buffered saline (PBS; 1.44 g/L of […]—Labkem, Barcelona, Spain; 8 g/L of sodium chloride, 0.2 g/L of potassium chloride, and 0.24 g/L of potassium dihydrogen phosphate—VWR, Leuven, Belgium) at pH 7.4. The collected cells were resuspended in PBS and adjusted to an optical density (OD) of 0.132 ± 0.02 (λ = 600 nm). Afterwards, 100 µL of this cell suspension was aseptically transferred to 800 µL of DW and allowed to stand for 2 min. To this mixture, 100 µL of each QHS solution diluted in DMSO at the desired concentration was added. The dose–response evaluation took place for 30 min at 37 °C. In the case of the negative control (untreated cells), the QHS solution was replaced by an equal volume of DMSO or DW. At the end of the contact time, QHS neutralization was performed through the dilution-neutralization method using a universal neutralizer (1 g/L L-histidine (Merck—Tokyo, Japan), 3 g/L lecithin (Alfa Aesar—Karlsruhe, Germany), 5 g/L sodium thiosulphate (Labkem—Barcelona, Spain), 30 g/L saponin (VWR Chemicals—Leuven, Belgium), and 30 g/L polysorbate 80 (VWR Chemicals—Le Havre, France) in 0.0025 M phosphate buffer). For neutralization, the test blend (100 µL) was added to 800 µL sterile aqueous neutralizing solution and 100 µL of DW. The mixture was gently agitated and allowed to stand for 10 min, after which serial dilutions (up to 10^−5) in sterile saline solution (0.85% w/v NaCl) were prepared. Then, 10 µL of each serial dilution was plated into Petri dishes containing PCA by the drop-plating method. The plates were allowed to set, then inverted and placed in an incubator at 37 °C for 24 h. The surviving cells on the QHS neutralized samples were determined by CFU counting on each plate, ensuring the counting of dilution plates that gave between 10 and 100 CFUs. The antibacterial activity was evaluated by quantification of logarithmic reduction (log CFU/mL), according to Equation (2). log CFU/mL reduction = log (X) − log (X0), (2) where X0 and X are the counts of CFU/mL before (untreated control cells) and after quaternary salt exposure, respectively.
The QHS concentrations chosen for conducting the dose–response tests comprise of the MBC, which causes the complete reduction of planktonic cells, as well as lower concentrations. Specifically, compound 1e was evaluated at concentrations of 0.25, 0.5, 0.75, 1, 2, 4, 8, and 16 µg/mL, compound 7e at concentrations of 1, 2, 3.2, 3.5, 4, 8, and 16 µg/mL, compound 5e at concentrations of 0.5, 1, 1.3, 1.6, 2, 4, and 8 µg/mL, and compound 3e at concentrations of 0.5, 0.75, 1, 1.3, 1.6, 2, 4, and 8 µg/mL. In the case of compounds 2e, 6e, and 4e, concentrations tested were 0.5, 1, 1.6, 2, 4, and 8 µg/mL. All tests were performed in duplicate, and with a minimum of three independent repeats.
The Chick–Watson mathematical model, provided in Equation (3), is considered an adequate approach to validate the kinetics of dose–response data. log X/X0 = − Kdis C^n t (3) where X0 and X are the counts of CFU/mL before and after quaternary salt exposure, respectively; Kdis is a killing rate coefficient ((mL.µg^−1)^n.min^−1); C is the quaternary salt concentration (µg.mL^−1); n is the concentration exponent and t is the exposure time (min). The concentration dependence of killing (n) was determined using a toolbox for linear regression in GraphPad Prism (version 8.4.0, GraphPad Software, La Jolla, CA, USA). The quality of the model was evaluated through the regression coefficient (R^2).

For another test, the system named is S. aureus SA1199B. Put plainly: MIC/MBC by broth microdilution, S. aureus SA1199B. The test is classed as cell-based. To be noted: Staphylococcus aureus. How it is done:
(§1) S. aureus CECT 976, obtained from the Spanish Type Culture Collection, was used as the standard susceptibility testing control strain. This strain has been previously employed in diverse studies to validate the antimicrobial effects of novel molecules. Additional antibiotic-resistant strains, S. aureus XU212, SA1199B, and RN4220, generously provided by S. Gibbons (University College London, London, UK) were tested. […] The SA1199B strain is characterized by its resistance to fluoroquinolones due to the overexpression of the NorA efflux pump and its ciprofloxacin resistance.
(§2) The minimum inhibitory concentration (MIC) and minimum bactericidal concentration (MBC) values of all QHSs were determined by the broth microdilution method, according to the approved M7-A7 (aerobes) standards of the Clinical and Laboratory Standards Institute (CLSI) guidelines. Overnight cell cultures of S. aureus, in the exponential phase of growth, were adjusted to an optical density (OD) of 0.132 ± 0.02 (λ = 600 nm). Then, a volume of 180 µL of the cell suspension was added to sterile, flat, clear-bottomed polystyrene (PS) 96-well microtiter plates (VWR—Radnor, PA, USA), already containing 20 µL of each QHS under study at concentrations ranging from 0.0625 to 64 µg/mL. In the end, the volume of each compound never exceeded 10% (v/v) of the well volume. Microtiter plates were then incubated for 24 h at 37 °C under agitation (150 rpm; INCU-Line IL 150R incubator). Absorbance measurements were performed at the beginning (t = 0 h) and end (t = 24 h) of the incubation period using a microtiter plate absorbance reader (BMG LABTECH FLUOstar Omega). Bacterial suspensions with DMSO and without QHSs were used as negative controls. […] All tests were performed with six replicates and a minimum of three independent repeats.
(§3) Plates were incubated at 37 °C for 24 h, and growth was visually inspected. The MBC was determined as the lowest concentration of compound in which the total inhibition of growth on solid medium was observed (no colony forming units (CFUs) were detected). All tests were performed in triplicate, and with a minimum of three independent repeats.

In a further test the test system is S. aureus RN4220. Put plainly: MIC/MBC by broth microdilution, S. aureus RN4220. The test is classed as cell-based. To be noted: Staphylococcus aureus. On the procedure: as §1, §2, §3
Another test relates to S. aureus XU212. Put plainly: MIC/MBC by broth microdilution, S. aureus XU212. The test is classed as cell-based. To be noted: Staphylococcus aureus. How it is done: as §1, §2, §3

On to `CCCCCCCCCCCCCC[P+](c1ccccc1)(c1ccccc1)c1ccccc1` [Compound 1e, Triphenyl(tetradecyl)phosphonium bromide], for which, in the test with S. aureus CECT 976, the “concentration inducing reductions in S. aureus log CFU/mL > 5” value is recorded as 0.7 μg/mL. Besides, the minimum bactericidal concentration (MBC) was found to be 1 µg/mL against S. aureus CECT 976, 2 µg/mL against S. aureus SA1199B, 2 µg/mL against S. aureus RN4220 and 2 µg/mL with S. aureus XU212. Also, the MIC in the test with S. aureus SA1199B worked out at 1 µg/mL; against S. aureus RN4220, 1 µg/mL; in the test on S. aureus XU212, 2 µg/mL.
For the molecule `CCCCCCCCCCCCCC[n+]1ccn(C)c1.[Br-]` [Compound 2e, 1-Methyl-3-tetradecyl-1H-imidazol-3-ium bromide], the “concentration inducing reductions in S. aureus log CFU/mL > 5” value with S. aureus CECT 976 is listed as 2.8 μg/mL. The values for the MBC with S. aureus SA1199B, against S. aureus RN4220 and in the test with S. aureus XU212 were 32 µg/mL, 8 µg/mL and 64 µg/mL, respectively. Also, the figures for the MIC against S. aureus SA1199B, against S. aureus RN4220 and against S. aureus XU212 were 8 µg/mL, 4 µg/mL and 32 µg/mL, respectively.
For the molecule `CCCCCCCCCCCCCC[n+]1ccc2ccccc2c1.[Br-]` [Compound 3e, 2-Tetradecylisoquinolin-2-ium bromide], in the test on S. aureus CECT 976, the “concentration inducing reductions in S. aureus log CFU/mL > 5” value was 1.2 μg/mL. Moreover, the MBC in the test with S. aureus CECT 976 came to 1.3 µg/mL; in the test with S. aureus SA1199B, 8 µg/mL; with S. aureus RN4220, 4 µg/mL; against S. aureus XU212 it was 8 µg/mL. The “maximum log CFU/mL reduction” value in the test with S. aureus CECT 976 (at 1.3 μg/mL) amounted to 6.0 log CFU/mL. In addition, the MIC against S. aureus SA1199B turned out to be 2 µg/mL; in the test on S. aureus RN4220, 2 µg/mL; in the test on S. aureus XU212 it was 4 µg/mL.
`CCCCCCCCCCCCCC[n+]1ccc(C)cc1.[Br-]` [Compound 4e, 4-Methyl-1-tetradecylpyridin-1-ium bromide]: in the test on S. aureus CECT 976, the “concentration inducing reductions in S. aureus log CFU/mL > 5” value was found to be 3.5 μg/mL. The “maximum log CFU/mL reduction” value in the test on S. aureus CECT 976 (at 4 μg/mL) is given as 5.9 log CFU/mL. Moreover, the minimal bactericidal concentration (MBC) with S. aureus SA1199B turned out to be 32 µg/mL; against S. aureus RN4220, 8 µg/mL; in the test on S. aureus XU212, 32 µg/mL. Further, the MIC in the test with S. aureus SA1199B is 8 µg/mL; against S. aureus RN4220, 4 µg/mL; in the test on S. aureus XU212, 32 µg/mL.
For `CCCCCCCCCCCCCC[n+]1cccc2ccccc21.[Br-]` [Compound 5e, 1-Tetradecylquinolin-1-ium bromide], the “concentration inducing reductions in S. aureus log CFU/mL > 5” value in the test on S. aureus CECT 976 worked out at 1.2 μg/mL. Moreover, the MBC was 1.3 µg/mL with S. aureus CECT 976, 8 µg/mL in the test with S. aureus SA1199B, 8 µg/mL in the test on S. aureus RN4220 and 8 µg/mL in the test on S. aureus XU212. The “maximum log CFU/mL reduction” value in the test on S. aureus CECT 976 (at 1.3 μg/mL) was determined as 6.0 log CFU/mL. Further, the MIC worked out at 4 µg/mL in the test with S. aureus SA1199B, 2 µg/mL against S. aureus RN4220 and 8 µg/mL in the test on S. aureus XU212.
On to `CCCCCCCCCCCCCC[n+]1ccccc1.[Br-]` [Compound 6e, 1-Tetradecylpyridin-1-ium bromide], for which the “concentration inducing reductions in S. aureus log CFU/mL > 5” value in the test on S. aureus CECT 976 worked out at 3.2 μg/mL. In the test on S. aureus CECT 976 (at 4 μg/mL), the “maximum log CFU/mL reduction” value amounted to 5.9 log CFU/mL. The figures for the MBC with S. aureus SA1199B, against S. aureus RN4220 and against S. aureus XU212 were 16 µg/mL, 8 µg/mL and 64 µg/mL, respectively. In addition, the MIC with S. aureus SA1199B was determined as 16 µg/mL; in the test with S. aureus RN4220, 4 µg/mL; with S. aureus XU212, 32 µg/mL.
